Data published in ChEMBL document CHEMBL5726652, “Oxazole orexin receptor antagonists” (2017).

Target: T1, Orexin receptor type 2 (Homo sapiens, UniProt O43614)
T1 sequence (O43614 whole entry): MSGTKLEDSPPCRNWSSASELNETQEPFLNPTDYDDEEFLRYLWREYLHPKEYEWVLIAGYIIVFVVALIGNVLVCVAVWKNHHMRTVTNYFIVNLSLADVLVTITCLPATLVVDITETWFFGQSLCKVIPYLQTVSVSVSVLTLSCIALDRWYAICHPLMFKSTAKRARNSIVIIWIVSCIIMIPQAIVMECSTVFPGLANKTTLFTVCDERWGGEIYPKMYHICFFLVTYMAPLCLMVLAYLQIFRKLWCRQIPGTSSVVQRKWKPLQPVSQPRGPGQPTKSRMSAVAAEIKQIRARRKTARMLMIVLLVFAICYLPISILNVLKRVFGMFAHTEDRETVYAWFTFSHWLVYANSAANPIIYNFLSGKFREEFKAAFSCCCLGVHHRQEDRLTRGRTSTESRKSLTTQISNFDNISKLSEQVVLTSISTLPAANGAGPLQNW
Test: FLIPR Ca2+ Flux Assay: For intracellular calcium measurements, Chinese hamster ovary (CHO) cells expressing the rat orexin-1 receptor or the human orexin-2 receptor, are grown in Iscove's modified DMEM containing 2 mM L-glutamine, […], 1% hypoxanthine-thymidine supplement, 100 U/ml penicillin, 100 μg/ml streptomycin and 10% heat-inactivated fetal calf serum (FCS). The cells are seeded at 20,000 cells/well into Becton-Dickinson black 384-well clear bottom sterile plates coated with poly-D-lysine. All reagents were from GIBCO-Invitrogen Corp. The seeded plates are incubated overnight at 37° C. and 5% CO2. Ala-6,12 human orexin-A as the agonist is prepared as a 1 mM stock solution in 1% bovine serum albumin (BSA) and diluted in assay buffer (HBSS containing 20 mM HEPES, 0.1% BSA and 2.5 mM probenecid, pH7.4) for use in the assay at a final concentration of 70 pM. Test compounds are prepared as 10 mM stock solution in DMSO, then diluted in 384-well plates, first in DMSO, then assay buffer. On the day of the assay, cells are washed 3 times with 100 μl assay buffer and then incubated for 60 min (37° C., 5% CO2) in 60 μl assay buffer containing 1 μM Fluo-4AM ester, 0.02% pluronic acid, and 1% BSA. The dye loading solution is then aspirated and cells are washed 3 times with 100 μl assay buffer. 30 μl of that same buffer is left in each well. […]
Type: cell-based

`COC(=O)Cc1nc([C@@H]2CC[C@@H](C)N(C(=O)c3ccccc3-n3nccn3)C2)oc1-c1ccccc1` showed an IC50 of 33 nM.

`Cc1oc([C@@H]2CC[C@@H](C)N(C(=O)c3cscc3-c3ncccn3)C2)nc1C(C)(C)O` showed an IC50 of 56 nM.
